Results on two molecules are retold here after US12630796B2, “System, device, and method for single-cell encapsulation and culture” (UNIVERSITY OF MARYLAND, COLLEGE PARK, priority 2020, dated 2026).

The assay concerns 1csc colony cells obtained from MDA-MB-231 cells. Description: In vitro cell viability after drug treatment (CCK-8). The class given is cell-based, human. As to conditions: 1csc colony cells versus cells from 2Dcells, Ucells and Mcells cultures; 24 hours treatment; FIG. 6A-6B. Here is the method:
For 2Dcells culture, human MDA-MB-231, MCF-7, PC-3, and OVCAR-8 cancer cells were cultured in Corning (Lowell, MA, USA) T75 flasks in DMEM, EMEM, F12K, and RPMI-1640 medium supplemented with 10% FBS and 1% penicillin/streptomycin at 37° C. in a humidified 5% CO2 incubator, respectively. For Ucells culture, cells were cultured in Corning (Lowell, MA, USA) 6-well ultralow attachment plate (ULAP) at a density of 20,000 cells ml^−1 in CSC medium consisting of serum-free DMEM/F12 supplemented with 5 μg ml^−1 insulin, 20 ng ml^−1 epidermal growth factor (EGF), 20 ng ml^−1 basic fibroblast growth factor (bFGF), 1×B27 (Invitrogen, Carlsbad, CA, USA), 0.4% (w v^−1) bovine serum albumin, 100 U ml^−1 penicillin, and 100 μg ml^−1 streptomycin. The cell spheroids or aggregates were collected after 7 days for further experiments. For lcsc and Mcells cultures, microcapsules encapsulated with one (for 1csc) or multiple (for Mcells) cells were cultured in the aforementioned CSC medium. To determine viability of cells under 2Dcells culture, cells were transferred into 96-well plates first. […] The cell viability was then evaluated using the CCK-8 cell proliferation reagent per the manufacturer's instructions. Cell viability was calculated as the ratio of the cell number determined for each group with a treatment to that of control group with no treatment.

Where a name gives a salt, the structure may show the parent alone.

On to `COc1cccc2c1C(=O)c1c(O)c3c(c(O)c1C2=O)C[C@@](O)(C(=O)CO)C[C@@H]3O[C@H]1C[C@H](N)[C@H](O)[C@H](C)O1` [DOX, Doxorubicin hydrochloride], for which the “resistance of the 1csc colony cells to the drug (cell viability)” value is listed as “significantly more resistant”.

For the molecule `CCc1c2c(nc3ccc(OC(=O)N4CCC(N5CCCCC5)CC4)cc13)-c1cc3c(c(=O)n1C2)COC(=O)[C@]3(O)CC` [CPT-11, Irinotecan/camptothecin-11], the “resistance of the 1csc colony cells to the drug (cell viability)” value is on record as “significantly more resistant”.
